Here are results for nine molecules from patent US7727998B2, “Melanin-concentrating hormone receptor antagonists containing piperidine derivatives as the active ingredient” (Banyu Pharmaceutical Co., Ltd., priority 2003, dated 2010).

In the first assay the target is T1, human MCH-1R (Homo sapiens, UniProt Q99705).
T1 construct: expressed in transfected cells; host or cells: CHO-K1 (American Type Culture Collection), membrane samples
T1 sequence (Q99705 whole entry): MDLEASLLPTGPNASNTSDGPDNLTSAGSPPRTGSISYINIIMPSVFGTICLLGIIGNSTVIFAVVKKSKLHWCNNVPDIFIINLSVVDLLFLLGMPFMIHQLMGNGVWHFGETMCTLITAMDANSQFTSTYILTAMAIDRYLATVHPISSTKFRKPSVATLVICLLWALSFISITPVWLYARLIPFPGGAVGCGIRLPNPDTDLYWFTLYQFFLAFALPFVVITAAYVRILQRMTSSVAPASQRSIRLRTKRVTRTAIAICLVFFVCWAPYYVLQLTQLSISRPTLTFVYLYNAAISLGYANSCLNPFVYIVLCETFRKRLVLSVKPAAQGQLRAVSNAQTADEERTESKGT
In words: MCH binding inhibition test.
Details: not given
The source says: Pharmacological Test Example 1
(MCH Binding Inhibition Test)
A human MCH-1R encoding cDNA sequence [FEBS Letters, Vol. 398, p. 253 (1996); Biochimica et Biophisica Acta, Vol. 1401, p. 216 (1998)] was cloned to plasmid vector pEF/mic/cyto (Invitrogen Corporation). The obtained expression vector was transfected to a host cell CHO-K1 (American Type Culture Collection) using lipofectamine plus reagent (Life Technology Inc.) to provide MCH-1R expression cells.
Membrane samples prepared from the MCH-1R expression cells were incubated with each test compound and 50 pM of [^125I]MCH (NEN Co.), in an assay buffer (50 mM Tris buffer comprising 10 mM magnesium chloride, 2 mM ethylenediamine tetraacetate, 0.01% bacitracin and 0.2% bovine serum albumin; pH 7.4) at 25° C. for an hour, followed by filtration through Glass Filter GF/C (Wattman Co.). After washing the glass filter with 50 mM Tris buffer (pH7.4) comprising 10 mM magnesium chloride, 2 mM ethylenediamine tetraacetate and 0.04% Tween-20, radiative activity on the glass filter was measured. Non-specific binding was measured in the presence of 1 μM human MCH and 50% inhibition concentration (IC50 value) of each test compound to specific [^125] MCH binding was determined.
By IC50 is commonly meant the concentration that inhibits the measured activity by half. With `O=C(NCCCN1CCC2(CC1)OCc1cc(F)ccc12)C(c1ccc(F)c(F)c1)N1CCCC1=O` (stereo not drawn) [Example 6, 2-(3,4-Difluorophenyl)-2-(2-oxo-1-pyrrolidinyl)-N-[3-(spiro[5-fluoroisobenzofuran-1(3H), 4′-piperidin]-1-yl)propyl]-acetamide], the IC50 was 5 nM.
On to `CN(CCCN1CCC2(CC1)OCc1ccccc12)C(=O)C(c1ccc(F)c(F)c1)n1ncnn1` (stereo not drawn) [Example 28, 2-(3,4-Difluorophenyl)-N-methyl-2-(2H-1,2,3,4-tetrazol-2-yl)-N-[3-(spiro[isobenzofuran-1(3H), 4′-piperidin]-1-yl)propyl]acetamide], for which the IC50 was 1.9 nM.
On to `CN(CCCN1CCC2(CC1)OCc1cc(F)ccc12)C(=O)C(c1ccc(F)c(F)c1)N1CCCC1=O` (stereo not drawn) [Example 33, 2-(3,4-Difluorophenyl)-N-methyl-2-(2-oxo-1-pyrrolidinyl-N-[3-spiro[5-fluoroisobenzofuran-1(3H), 4′-piperidin]-1-yl)-propyl]acetamide], for which the IC50 turned out to be 1.4 nM.
`Cc1nccn1C(C(=O)N(C)CCCN1CCC2(CC1)OCc1ccc(F)cc12)c1ccc(F)c(F)c1` (stereo not drawn) [Example 43, 2-(3,4-Difluorophenyl)-N-methyl-2-(2-methyl-1H-imidazol-1-yl)-N-[3-(spiro[6-fluoroisobenzofuran-1(3H), 4′-piperidin]-1-yl)-propyl]acetamide] showed an IC50 of 0.2 nM.
Regarding `CN(CCCN1CCC2(CC1)OCc1cc(F)ncc12)C(=O)C(c1ccc(F)nc1)c1ccc(F)nc1` [Example 48, 2,2-Bis(6-fluoro-3-pyridinyl)-N-methyl-N-[3-(spiro[5-fluoro-6-azaisobenzofuran-1(3H), 4′-piperidin]-1-yl)propyl]-acetamide], the IC50 was 6.5 nM.

The same assay, now with this note: inhibition of specific [125I]MCH (50 pM) binding; membranes of MCH-1R expressing CHO-K1 cells; 25° C., one hour, pH 7.4; read-out: IC50.
With `CN(CCCN1CCC2(CC1)OCc1ccccc12)C(=O)C(c1ccc(Cl)cc1)n1cccc1` (stereo not drawn) [Example 12, 2-(4-Chlorophenyl)-N-methyl-2-(1H-pyrrol-1-yl)-N-[3-(spiro-[isobenzofuran-1(3H), 4′-piperidin]-1-yl)propyl]acetamide], the IC50 was determined as 1 nM.
`CN(CCCN1CCC2(CC1)OCc1ccccc12)C(=O)C(c1ccc(F)c(F)c1)n1ccnn1` (stereo not drawn) [Example 18, 2-(3,4-Difluorophenyl)-N-methyl-2-(1H-1,2,3-triazol-1-yl)-N-[3-(spiro[isobenzofuran-1(3H), 4′-piperidin]-1-yl)propyl]acetamide]: the IC50 worked out at 1.9 nM.
Same read-out and setting: for `CCC(=O)Nc1cccc(C2CCN(CCCN(C)C(=O)C(C)(C)c3ccc(F)c(F)c3)CC2)c1` [Example 60, 2-(3,4-Difluorophenyl)-2,2-dimethyl-N-methyl-N-[3-(4-(3-(propionylamino)phenyl)-1-piperidinyl)propyl]acetamide] the value was 2.5 nM; for `CCN(CCCN1CCC2(CC1)OCc1ccccc12)C(=O)C(c1ccc(F)c(F)c1)N1CCCC1=O` (stereo not drawn) [Example 67, 2-(3,4-Difluorophenyl)-N-ethyl-2-(2-oxo-1-pyrrolidinyl)-N-[3-(spiro[isobenzofuran-1(3H), 4′-piperidin]-1-yl)propyl]acetamide], 1 nM.
